From patent US20080254136A1, “Antiprotozoal Agent” (JAPAN HEALTH SCIENCES FOUNDATION, priority 2004, published 2008)
Values after ≈ are worked out from the molar mass of the structure shown.

System: leishmania
Test: antileishmanial activity measurement (leishmania culture, Tetracolor ONE, OD 450-630 nm)
Type: cell-based
Settings: leishmania culture 2×10^5/ml, 27° C., 5% CO2, 48 hours, then Tetracolor ONE 6 hours; mean of 3 wells
Excerpt: A hexane extract from Lithospermi Radix (obtained by the method used for Reference example 1), a hexane extract from a mixture of Lithospermi Radix and Angelicae Radix (obtained by the method used for Reference example 2), shikonin (Nagara Science), acetylshikonin (Nagara Science), β,β-dimethylacrylshikonin (Nagara Science), isobutyrylshikonin (Nagara Science), α-methyl-n-butyrylshikonin (Nagara Science), isovalerylshikonin (Nagara Science), β-hydroxyisovalerylshikonin (Nagara Science), and alkanine (Wako Pure Chemical Industries, Ltd.) were subjected to antileishmanial activity measurement.
First, 1 to 5 mg of each sample was dissolved in dimethylsulfoxide (DMSO) such that DMSO solutions (10 mg/ml) were prepared. Then, the solutions were diluted with Medium 199 (800 μg/ml) and allowed to pass through a membrane filter. The resulting test solutions were adjusted to 9 different concentrations. The test solutions (50 μl) at different concentrations and a leishmania culture solution (50 μl) that had been adjusted to a final concentration of 2×10^5/ml were introduced into wells of a microtiter plate such that the total volume of each culture solution was 100 μl in each well. After incubation at 27° C. in the presence of 5% CO2 for 48 hours, 10 μl of a Tetracolor ONE reagent was added thereto, followed by incubation for 6 hours. Thereafter, the OD value (450-630 nm) was measured using a microplate reader. Each sample at each concentration (3 wells) was subjected to measurement such that the mean value was obtained. Then, a graph was created such that the IC50 value was obtained.

In order of rising IC50:
1. CCC(C)C(=O)OC(CC=C(C)C)C1=CC(=O)c2c(O)ccc(O)c2C1=O (stereo not drawn) [α-methyl-n-butyrylshikonin]  0.014 µg/mL (≈ 0.0376 µM)
2. CC(C)=CCC(OC(=O)C=C(C)C)C1=CC(=O)c2c(O)ccc(O)c2C1=O (stereo not drawn) [β,β-dimethylacrylshikonin]  0.014 µg/mL (≈ 0.0378 µM)
3. CC(C)=CC[C@@H](OC(=O)C(C)C)C1=CC(=O)c2c(O)ccc(O)c2C1=O [Isobutyrylshikonin, isobutyrylshikonin]  0.017 µg/mL (≈ 0.0474 µM)
4. CC(C)=CCC(OC(=O)CC(C)C)C1=CC(=O)c2c(O)ccc(O)c2C1=O (centres unmarked) [Isovalerylshikonin, isovalerylshikonin]  0.02 µg/mL (≈ 0.0537 µM)
5. CC(=O)O[C@H](CC=C(C)C)C1=CC(=O)c2c(O)ccc(O)c2C1=O [Acetylshikonin, acetylshikonin]  0.026 µg/mL (≈ 0.0787 µM)
6. CC(C)=CC[C@@H](O)C1=CC(=O)c2c(O)ccc(O)c2C1=O [Shikonin, shikonin]  0.09 µg/mL (≈ 0.312 µM)
7. CC(C)=CC[C@@H](OC(=O)CC(C)(C)O)C1=CC(=O)c2c(O)ccc(O)c2C1=O [β-hydroxyisovalerylshikonin]  0.19 µg/mL (≈ 0.489 µM)

Same assay, conditions: leishmania culture 2×10^5/ml, 27° C., 5% CO2, 48 hours, then Tetracolor ONE 6 hours; mean of 3 wells; read-out: IC50

With `CC(C)=CC[C@H](O)C1=CC(=O)c2c(O)ccc(O)c2C1=O` [Alkanine, alkanine] the IC50 was 0.028 µg/mL (≈ 0.0971 µM).
